Data taken from US5852011A, “Benzimidazole derivatives” (Mitsui Chemicals, Inc., priority 1994, dated 1998).
Where a name gives a salt, the structure may show the parent alone.

Experiments:
[1] = test system: Colon 26 mouse colon cancer cells; assay: In vivo antitumor activity, Colon 26 subcutaneously transplanted to female CDF1 mice (Test 4); settings: caudal vein, tumor weight on day 15
Procedure: Prepared was a 1×10^7 cells/ml suspension of Colon 26 mouse colon cancer cells in HBSS (Hanks' Balanced Salt Solution). A 0.1 ml portion of the cell suspension was subcutaneously transplanted to a lateroabdominal part of each female CDF1 mouse. After the body weight of the mouse was measured on the following day of the transplantation of the tumor, a solution of a compound (5% glucose solution containing 5% of "Tween 80") was administered into the caudal vein of the mouse. On day 15, a tumor was excised and its weight was measured.
The percentage of the average tumor weight of each experiment group as calculated by supposing that the average tumor weight of the control group not administered with any drug was 100% was calculated as a T/C value.
Corresponding to each compound number, its T/C value is shown. The number in parentheses indicates the concentration of the drug when the T/C value was indicated.

mouse B16 melanoma cells = assay: In vitro inhibition of proliferation of tumored cells, mouse B16 melanoma (Test 2); format: cell-based; settings: 3 days in 5% CO2 at 37° C., 96-well plate
Procedure: A description will next be made of antitumor activities of these compounds. Their antitumor activities were determined by measuring their in vitro inhibition of proliferation of tumored cells. Namely, mouse B16 melanoma cells were spread over a 96-well culture plate. One day later, each drug was applied. The melanoma cells were then incubated for 3 days in 5% CO2 at 37° C. Following the method reported in Cancer Res., 48, 589-601(1988), the concentration of the drug required to induce 50% inhibition on the proliferation was determined. As a comparative example, the results obtained from the application of distamycin are also shown.

P388 leukemia cells = assay: In vivo antitumor activity, P388 leukemia intraperitoneally transplanted to female CDF1 mice (Test 3); set-up: species or system mouse; ILS: unit not given here; settings: intraperitoneal, one, five and nine days after transplantation; for Survived After 8 weeks/Tested Animals: concentration 3 (in parentheses)
Procedure: In vivo antitumor activities of these compounds were also studied. P388 leukemia cells (10^6 cells/mouse) were intraperitoneally transplanted to female CDF1 mice. One, five and nine days later, each compound was intraperitoneally administered (at 1, 3 or 10 mg/kg) to the mice. As a blank test, 5% glucose was intraperitoneally administered at 10 ml/kg to mice. Based on the group of the mice in the blank test as a control group, the effects of the individual drugs are shown in terms of ILS. The term "ILS" is represented by the following formula: [formula]
When test animals survived 8 weeks after the administration, the number of those survived was recorded without calculation of ILS.

| Structure (SMILES) | 50% Inhibition (mouse B16 melanoma cells) [µg/mL] | also measured |
| --- | --- | --- |
| COc1cccc2c1C(=O)c1c(O)c3c(c(O)c1C2=O)C[C@@](O)(C(=O)CO)C[C@@H]3O[C@H]1C[C@H](N)[C@H](O)[C@H](C)O1 [Adriamycin, adriamycin, reference compound] | – | T/C ([1]; 20 mg/Kg): 40% |
| Cn1cc(NC(=O)Cc2ccc(N(CCCl)CCCl)cc2)cc1-c1nc2cc(C(=O)NCCC(=N)N)ccc2[nH]1 [Compound 2, 1H-2-[4-[2-[4-[N,N-Bis(2-chloroethyl)amino]phenyl]acetylamino]-1-methylpyrrol-2-yl]benzimidazole-5-[N-(2-amidinoethyl)]carboxamide hydrochloride] | 0.25 | ILS (P388 leukemia cells; 1 mg/kg): 59; Survived After 8 weeks/Tested Animals (P388 leukemia cells): 2/5 |
| COc1cc(C(=O)Nc2cc(-c3nc4cc(C(=O)NCCC(=N)N)ccc4[nH]3)n(C)c2)ccc1N(CCCl)CCCl [Compound 6, 1H-2-[4-[3-Methoxy-4-[N,N-bis(2-chloroethyl)amino]benzoylamino]-1-methylpyrrol-2-yl]benzimidazole-5-[N-(2-amidinoethyl)]carboxamide hydrochloride] | 0.02 | ILS (P388 leukemia cells; 1 mg/kg): 94 |
| Cn1cc(NC(=O)COc2ccc(N(CCCl)CCCl)cc2)cc1-c1nc2cc(C(=O)NCCC(=N)N)ccc2[nH]1 [Compound 13, 1H-2-[4-[4-[N,N-Bis(2-chloroethyl)amino]phenoxyacetylamino]-1-methylpyrrol-2-yl]benzimidazole-5-[N-(2-amidinoethyl)]carboxamide hydrochloride] | 0.01 | ILS (P388 leukemia cells; 1 mg/kg): 123; Survived After 8 weeks/Tested Animals (P388 leukemia cells): 3/5 |
| Cn1cc(NC(=O)c2ccccc2N(CCCl)CCCl)cc1-c1nc2cc(C(=O)NCCC(=N)N)ccc2[nH]1 [Compound 305, 1H-2-[4-[2-[N,N-Bis(2-chloroethyl)amino]benzoylamino]-1-methylpyrrol-2-yl)benzimidazole-5-[N-(2-amidinoethyl)]carboxamide hydrochloride] | 4.2 | ILS (P388 leukemia cells; 10 mg/kg): 22 |
| Cn1cc(NC(=O)c2cc(N(CCCl)CCCl)cc(N(CCCl)CCCl)c2)cc1-c1nc2cc(C(=O)NCCC(=N)N)ccc2[nH]1 [Compound 310, 1H-2-[4-[3,5-Bis[N,N-bis(2-chloroethyl)amino]benzoylamino]-1-methylpyrrol-2-yl]benzimidazole-5-[N-(2-amidinoethyl)]carboxamide hydrochloride] | 0.76 | ILS (P388 leukemia cells; 1 mg/kg): 88 |
| Cn1cc(NC(=O)CNC(=N)N)cc1-c1nc2cc(C(=O)NCCc3ccc(N(CCCl)CCCl)cc3)ccc2[nH]1 [Compound 1003, 1H-2-[4-(2-Guanidinoacetylamino)-1-methylpyrrol-2-yl]benzimidazole-5-[N-[2-[4-[N,N-bis(2-chloroethyl)amino]phenyl]ethyl]]carboxamide hydrochloride] | 0.018 | T/C ([1]; 0.3 mg/Kg): 41% |
| Cc1cc(NC(=O)c2ccc3[nH]c(-c4cc(NC(=O)CNC(=N)N)cn4C)nc3c2)ccc1N(CCCl)CCCl [Compound 1005, 1H-2-[1-Methyl-4-(2-guanidinoacetylamino)pyrrol-2-yl]benzimidazole-5-[N-[3-methyl-4-[N,N-bis(2-chloroethyl)amino]phenyl]]carboxamide dihydrochloride] | 0.65 | T/C ([1]; 15 mg/Kg): 20% |
| COc1cc(NC(=O)c2ccc3[nH]c(-c4cc(NC(=O)CNC(=N)N)cn4C)nc3c2)ccc1N(CCCl)CCCl [Compound 1009, 1H-2-[1-Methyl-4-(guanidinoacetylamino)pyrrol-2-yl]benzimidazole-5-[N-[3-methoxy-4-[N,N-bis(2-chloroethyl)amino]phenyl]]carboxamide dihydrochloride] | 2.31 | T/C ([1]; 10 mg/Kg): 29% |
| Cn1cc(NC(=O)CNC(=N)N)cc1-c1nc2cc(C(=O)Nc3ccc(N(CCCl)CCCl)c(C#N)c3)ccc2[nH]1 [Compound 1013, 1H-2-[1-Methyl-4-(guanidinoacetylamino)pyrrol-2-yl]benzimidazole-5-[N-[3-cyano-4-[N,N-bis(2-chloroethyl)amino]phenyl]]carboxamide dihydrochloride] | 0.34 | T/C ([1]; 3 mg/Kg): 58% |
| Cn1cc(NC(=O)CNC(=N)N)cc1-c1nc2cc(C(=O)Nc3ccc(N(CCCl)CCCl)c(Cl)c3)ccc2[nH]1 [Compound 1017, 1H-2-[1-Methyl-4-(guanidinoacetylamino)pyrrol-2-yl]benzimidazole-5-[N-[3-chloro-4-[N,N-bis(2-chloroethyl)amino]phenyl]]carboxamide dihydrochloride] | 0.78 | T/C ([1]; 3 mg/Kg): 30% |
| Cc1cc(N(CCCl)CCCl)ccc1NC(=O)c1ccc2[nH]c(-c3cc(NC(=O)CNC(=N)N)cn3C)nc2c1 [Compound 1024, 1H-2-[1-Methyl-4-(guanidinoacetylamino)pyrrol-2-yl]benzimidazole-5-[N-[2-methyl-4-[N,N-bis(2-chloroethyl)amino]phenyl]]carboxamide dihydrochloride] | 0.586 | T/C ([1]; 10 mg/Kg): 61% |
| CN(C)CCCC(=O)Nc1cc(-c2nc3cc(C(=O)Nc4ccc(N(CCCl)CCCl)cc4)ccc3[nH]2)n(C)c1 [Compound 1256, 1H-2-[1-Methyl-4-[4-(N,N-dimethylamino)butyrylamino]pyrrol-2-yl]benzimidazole-5-[N-[4-[N,N-bis-(2-chloroethyl)amino]phenyl]]carboxamide hydrochloride] | 4.67 | T/C ([1]; 15 mg/Kg): 60% |
| Cn1cc(NC(=O)N2CCOCC2)cc1-c1nc2cc(C(=O)Nc3ccc(N(CCCl)CCCl)cc3)ccc2[nH]1 [Compound 1536, 1H-2-[1-Methyl-4-(4-morpholinecarbonyl)aminopyrrol-2-yl]benzimidazole-5-[N-[4-[N,N-bis(2-chloroethyl)amino]phenyl]]carboxamide] | 0.53 | – |
| Cn1cc(NC(=O)CN2CCN(Cc3ccccc3)CC2)cc1-c1nc2cc(C(=O)Nc3ccc(N(CCCl)CCCl)cc3)ccc2[nH]1 [Compound 1585, 1H-2-[1-Methyl-4-[(4-benzylpiperazinyl)acetylamino]pyrrol-2-yl]benzimidazole-5-[N-[4-[N,N-bis(2-chloroethyl)amino]phenyl]]carboxamide] | 0.1 | – |
| Cn1cc(NC(=O)CCn2ccnc2)cc1-c1nc2cc(C(=O)Nc3ccc(N(CCCl)CCCl)cc3)ccc2[nH]1 [Compound 1589, 1H-2-[1-Methyl-4-[[3-(imidazol-1-yl)propionyl]amino]pyrrol-2-yl]benzimidazole-5-[N-[4-[N,N-bis(2-chloroethyl)]amino]phenyl]carboxamide] | 0.41 | – |
| Cn1cc(NC(=O)c2ncc[nH]2)cc1-c1nc2cc(C(=O)Nc3ccc(N(CCCl)CCCl)cc3)ccc2[nH]1 [Compound 1590, 1H-2-[1-Methyl-4-[2-imidazolylcarboxamido)-pyrrol-2-yl]benzimidazole-5-[N-[4-[N,N-bis(2-chloroethyl)amino]phenyl]]carboxamide] | 0.53 | – |
| Cn1cc(NC(=O)CNC(=N)N)cc1-c1nc2cc(C(=O)NCCCC(=O)Nc3ccc(N(CCCl)CCCl)cc3)ccc2[nH]1 [Compound 1592, 1H-2-[4-(Guanidinoacetyl)amino-1-methylpyrrol-2-yl]benzimidazole-5-[N-[3-[N-[4-[N,N-bis(2-chloroethyl)amino]phenyl]carboxamido]propyl]]carboxamide hydrochloride] | 0.61 | – |
| N=C(N)NCC(=O)Nc1cc(-c2nc3cc(C(=O)Nc4ccc(N(CCCl)CCCl)cc4)ccc3[nH]2)cs1 [Compound 1617, 1H-2-[5-(Guanidinoacetyl)aminothiophen-3-yl]benzimidazole-5-[N-[4-[N,N-bis(2-chloroethyl)amino]phenyl]]carboxamide dihydrochloride] | 0.12 | – |
| Cn1cc(NC(=O)c2ccc(N(CCCl)CCCl)cc2)cc1-c1nc2cc(C(=O)Nc3ccc(N(CCCl)CCCl)cc3)ccc2[nH]1 [Compound 2001, 1H-2-[4-[4-[N,N-Bis(2-chloroethyl)amino]benzoylamino]-1-methylpyrrol-2-yl]benzimidazole-5-[N-[4-[N,N-bis(2-chloroethyl)amino]phenyl]]carboxamide] | 0.005 | ILS (P388 leukemia cells; 10 mg/kg): 47 |
| CCN(CCCl)c1ccc(NC(=O)c2ccc3[nH]c(-c4cc(NC(=O)c5ccc(N(CC)CCCl)cc5)cn4C)nc3c2)cc1.Cl [Compound 2089, 1H-2-[1-Methyl-4-[4-[N-ethyl,N-(2-chloroethyl)amino]benzoylamino]pyrrol-2-yl]benzimidazole-5-[N-[4-[N-ethyl,N-(2-chloroethyl)amino]phenyl]]carboxamidehydrochloride] | 0.0057 | – |
